The structures appear in SMILES notation. Values after ≈ are worked out from the molar mass of the structure shown.

What all share (type): cell-based
For data set [1], the system named is IIIB strain of HIV-1. The data set can be described thus: Virus attachment assay, HeLa CD4 LTR β-gal cells (Experimental Example 2). The following applies: Human immunodeficiency virus 1, IIIB, HeLa, read-out: Attachment Assay IC50. How it is done: (§1) This assay detects compounds that block virus attachment using HeLa CD4 LTR β-gal cells. HeLa CD4 LTR β-gal cells were cultured with selection antibiotics. Twenty-four h prior to initiation of the assay, the cells were trypsinized, counted and plated in a 0.2 cm well in media without selection antibiotics. At 24 h media is removed and compound in media placed on the cells and incubated for 15 min at 37° C. A known titer of the IIIB strain of HIV-1 was then added to the wells and the incubation continued for 1 to 2 h. At the end of the incubation the wells were washed 2 times with media and the culture continued for 40 to 48 h. At termination of the assay, media is removed and β-galactosidase enzyme expression determined by chemiluminescence per manufacturer's instructions (Tropix Gal-screen, Bedford Mass.). Compound toxicity is monitored on a sister plate by XTT or MTS dye reduction. All determinations are performed in triplicate with serial_Log10 dilution of the test materials.

Data set [2] relates to HeLa CD4 LTR β-gal cells. Description: Compound toxicity in the fusion assay, sister plates, MTS dye reduction. The settings on record: no timed addition; 48 h. The protocol:
(§2) At assay termination the assay plates were stained with the soluble tetrazolium-based dye MTS (CellTiter96® Reagent Promega) to determine cell viability and quantify compound toxicity. MTS is metabolized by the mitochondria enzymes of metabolically active cells to a soluble formazan product, allowing the rapid quantitative analysis cell viability and compound cytotoxicity. […] At termination of the assay 20 μL of MTS reagent was added per well and incubated for 4 h at 37° C. Adhesive plate sealers were used in place of the lids, the sealed plate was inverted several times to mix the soluble formazan product and the plate was read spectrophotometrically at 490 nm with a Molecular Devices Vmax plate reader.
(§3) Twenty-four h prior to initiation of the assay cells were trypsinized, counted and 5×10^3 cells placed in a 0.2 cm well in media without selection antibiotics. To initiate the fusion assay HeLa CD4 LTR β-gal (5×10^3 cells per 0.2 cm well) were incubated with compound for 1 h at 37° C. HL2/3 cells (5×10^3) were added to the 0.2 cm well and the incubation continued for 48 h. At 48 h the wells were washed 1 time with PBS and β-galactosidase enzyme expression determined by chemiluminescence per manufacturers instructions (Tropix Gal-screen™, Tropix, Bedford, Mass.). Compound toxicity was monitored on sister plates using MTS dye reduction.
On the technique in general: Formazan colour is commonly taken as a measure of viable cells.

Data set [3] deals with cell-to-cell fusion mediated by HIV-1 Env and CD4. Description: Fusion assay, HeLa CD4 LTR β-gal and HL2/3 cells (Experimental Example 2). The following applies: Human immunodeficiency virus 1, HL2/3, read-out: Fusion Assay IC50. How it is done: (§4) The fusion assay assesses the ability of compounds to block cell-to-cell fusion mediated by HIV-1 Env and CD4 expressed on separate cells. This assay is sensitive to inhibitors of both the gp 120/CD4 interaction and inhibitors of the X4 coreceptor. HeLa CD4 LTR β-gal cells were plated in microtiter wells and diluted compounds are added and allowed to incubate at 37° C. for 1 hr prior to the addition of HL2/3 cells. The incubation was then continued for 40 to 48 h, after which fusion is monitored by measurement of β-galactosidase enzyme expression, detectable by chemiluminescence (Tropix Gal-screen, Tropix, Bedford, Mass.). Compound toxicity is monitored on a sister plate using XTT or MTS dye reduction. All determinations are performed in triplicate with serial_Log10 dilution of the test materials.

Data set [4] relates to HeLa CD4 LTR β-gal cells. The data set can be described thus: Compound toxicity in the fusion assay, sister plate, XTT or MTS (Example 2). How it is done:
as §4

Data set [5] deals with interaction of HIV gp 120 with CD4 (HeLa CD4 LTR β-gal / HL2/3 cell fusion). Description: HeLa CD4 LTR β-gal/HL2/3 HIV-1 fusion assay (Experimental Example 1). The following applies: Human immunodeficiency virus 1, HeLa, 48 h, read-out: Antiviral Activity IC50.
Source text: This assay uses the HeLa CD4 LTR β-gal and HL2-3 cells available from the AIDS Research and Reference Reagent Repository. The fusion assay utilizes HeLa CD4 LTR β-gal cells with HL2/3 cells as a fusion partner via the interaction of HIV gp 120 with CD4. HL2/3 cells express HIV-1 Env on their cell surface and contain an HIV-1 Tat expression cassette. Upon syncytium formation and plasma membrane fusion, cytoplasmic mixing of the HL2/3 and HeLa CD4 LTR b-gal cell contents results in the transactivation of the LTR and β-Galactosidase expression is then directly related to […] cell membrane fusion. Thus, these two mechanistic assays can be used to confirm and identify a virus entry-based target of the compound. Additionally, because the attachment assay uses cell-free virus this assay can be used to show applicability to cell-free virus transmission.
as §3
In addition to assessing inhibition of attachment with HeLa CD4 LTR β-gal cells a virus fusion assay was perfoed using HeLa CD4 LTR β-gal and HL2/3 cells. No timed addition of compound was employed, but rather the assay was performed to verify the effects of the compounds on the HeLa CD4 LTR β-gal cells β-galactosidase expression.

Data set [6] relates to HIV-1. Description: HeLa CD4 LTR β-gal HIV-1 attachment assay (Experimental Example 1). The following applies: Human immunodeficiency virus 1, HeLa.
The test system of data set [7] is HeLa CD4 LTR β-gal cells. Description: Compound toxicity in the attachment assay, sister plate, XTT or MTS (Example 2). How it is done: as §1, with “materials. The virus adsorption interval of 1 to 2 h was sufficiently short that AZT, which requires phosphorylation to achieve its active tri-phosphate form (AZT-TTP), is not active in this assay.” for “materials.”
For data set [8], the system named is HeLa CD4 LTR β-gal cells. Description: Compound toxicity in the attachment assay, sister plates, MTS dye reduction. How it is done: as §2
The attachment assay was performed with the HeLa CD4 LTR β-gal cells available from the AIDS Research and Reference Reagent Repository. […] HeLa CD4 LTR β-gal cells express cell surface CD4 and contain an LTR β-galactosidase reporter construct. Upon infection either the Tat protein incorporated into the virion or new Tat produced following virus integration and transcription trans-activates the LTR β-gal reporter, leading to expression of the β-galactosidase enzyme. HeLa CD4 LTR β-gal cells are routinely cultured with the required selection antibiotics and screened for mycoplasma contamination. Twenty-four h prior to initiation of the assay cells were trypsinized, counted and 1×10^4 cells placed in a 0.2 cm well in media without selection antibiotics. […] A known titer of virus was then added to the wells and the incubation continued for 1 h. At the end of the incubation the wells were washed 6 times with media and the culture continued for 48 h. At 48 h the wells were washed one time with PBS and β-galactosidase enzyme expression determined by chemiluminescence per manufacturers instructions (Tropix Gal-screen™, Tropix, Bedford, Mass.). Compound toxicity was monitored on sister plates using MTS dye reduction.

As to `COc1cc(-c2ccc(/N=N/c3ccc4c(S(=O)(=O)O)cc(S(=O)(=O)O)c(N)c4c3O)c(OC)c2)ccc1/N=N/c1ccc2c(S(=O)(=O)O)cc(S(=O)(=O)O)c(N)c2c1O` [CSB, Chicago Sky Blue, reference compound], the IC50 was determined as 0.63 µg/mL (≈ 0.696 µM) in data set [1]; 0.41 µg/mL (≈ 0.453 µM) in data set [3]; 1.75 µg/mL (≈ 1.93 µM) in data set [5]; 1.1 µg/mL (≈ 1.22 µM) in data set [6] (Experiment 1, pretreat 0 h); 1.71 µg/mL (≈ 1.89 µM) in data set [6] (Experiment 1, pretreat 4 h); 1.3 µg/mL (≈ 1.44 µM) in data set [6] (Experiment 1, pretreat 24 h). In addition, the half-maximal inhibitory concentration (IC50) was found to be 0.17 µg/mL (≈ 0.188 µM) in data set [6] (Experiment 2, pretreat 0 h); 2.11 µg/mL (≈ 2.33 µM) in data set [6] (Experiment 2, pretreat 4 h); 4.7 µg/mL (≈ 5.19 µM) in data set [6] (Experiment 2, pretreat 24 h). For the same compound, the TC50 in data set [2] is >10 µg/mL; in data set [8] (Experiment 1, pretreat 0 h), >10 µg/mL; in data set [8] (Experiment 1, pretreat 4 h), >10 µg/mL; in data set [8] (Experiment 1, pretreat 24 h) it was >10 µg/mL; in data set [8] (Experiment 2, pretreat 0 h) it was >10 µg/mL; in data set [8] (Experiment 2, pretreat 4 h) it was >10 µg/mL. Moreover, the TC50 in data set [8] (Experiment 2, pretreat 24 h) is >10 µg/mL. Moreover, in data set [4], the “Fusion Assay TC50” value was >100 µg/mL. In data set [7], the “Attachment Assay TC50” value is >10 µg/mL.

As usually defined, the IC50 is the concentration needed to halve the response being measured.

The record behind these values is patent US20030232101A1, “Topical formulations of resorcinols and cannibinoids and methods of use” (Immugen Pharmaceuticals, Inc., priority 2002, published 2003).
